# Laboratory results from patent publication US20120122727A1, “IN VITRO METHOD FOR PREDICTING WHETHER A COMPOUND IS GENOTOXIC IN VIVO” (priority 2009, published 2012).
# System: primary mouse hepatocytes
# Experiment: Gene expression (Affymetrix Mouse Genome 430 2.0) in primary mouse hepatocytes, true vs false GTX, 24 h and 48 h
# Conditions: 48 h; log2, corrected for vehicle control
smiles,measurement,value
"Nc1ccc([N+](=O)[O-])cc1N [4-NP, 4-Nitro-o-phenylenediamine]",Gene expression AK005731 average,−0.9581
same,Gene expression AK007854 average,−0.1411
same,Gene expression AK010447 average,0.5956
same,Gene expression AK010738 average,−0.1569
same,Gene expression AK014608 average,−0.3072
same,Gene expression AK017734 average,−1.2326
same,Gene expression AK018383 average,−0.5006
same,Gene expression AK019979 average,0.04087
same,Gene expression AV095209 average,0.6413
same,Gene expression AV141095 average,−0.1051
same,Gene expression AV173869 average,0.1411
same,Gene expression AV216768 average,−0.004067
same,Gene expression AV219418 average,0.6295
same,Gene expression AV221299 average,0.7477
same,Gene expression AV246296 average,−1.046
same,Gene expression AV251625 average,−0.1615
same,Gene expression AV254764 average,−0.4499
same,Gene expression AV327248 average,−0.01493
same,Gene expression BB009155 average,−0.6079
same,Gene expression BB027848 average,−1.954
same,Gene expression BB043558 average,−0.2736
same,Gene expression BB046347 average,−0.8045
same,Gene expression BB140436 average,2.071
same,Gene expression BB204486 average,−0.0837
same,Gene expression BB223872 average,−0.6536
same,Gene expression BB246912 average,0.3026
same,Gene expression BB275142 average,−0.1963
same,Gene expression BB458460 average,0.1645
same,Gene expression BB463610 average,0.03727
same,Gene expression BB730977 average,0.992
same,Gene expression BB743970 average,−0.1636
same,Gene expression BB770528 average,−0.9985
same,Gene expression BB781615 average,−0.7501
same,Gene expression BC003284 average,−0.5876
same,Gene expression BC004827 average,−0.2247
same,Gene expression BC005552 average,0.4521
same,Gene expression BC006713 average,−0.7469
same,Gene expression BC010318 average,0.1861
same,Gene expression BC012247 average,−0.6355
same,Gene expression BC012955 average,0.1051
same,Gene expression BC013893 average,−1.496
same,Gene expression BC017615 average,−1.535
same,Gene expression BC019379 average,−0.5665
same,Gene expression BC019882 average,−2.4942
same,Gene expression BC021352 average,−1.28
same,Gene expression BC022148 average,−1.1322
same,Gene expression BC025169 average,0.3712
same,Gene expression BC026131 average,0.2124
same,Gene expression BC027026 average,0.05273
same,Gene expression BC027121 average,−0.2406
same,Gene expression BC027185 average,−1.382
same,Gene expression BE956581 average,0.0346
same,Gene expression BF719766 average,−0.5024
same,Gene expression BG065754 average,−0.3381
same,Gene expression BG066491 average,−0.8219
same,Gene expression BG076151 average,−0.6573
same,Gene expression BG076333 average,0.8731
same,Gene expression BG797099 average,−0.06697
same,Gene expression BG967046 average,−0.6324
same,Gene expression BI651416 average,−0.02873
same,Gene expression BI966443 average,0.2259
same,Gene expression BM198879 average,−0.4213
same,Gene expression BM200015 average,−0.4429
same,Gene expression BM230508 average,−0.9731
same,Gene expression BM936480 average,−0.412
same,Gene expression BQ174991 average,0.4017
same,Gene expression L21027 average,−0.03073
same,Gene expression NM_007556 average,0.4274
same,Gene expression NM_007980 average,−1.581
same,Gene expression NM_007987 average,−0.8469
same,Gene expression NM_008522 average,−0.2393
same,Gene expression NM_008935 average,−1.002
same,Gene expression NM_009897 average,−0.01903
same,Gene expression NM_011075 average,−1.008
same,Gene expression NM_011176 average,−1.635
same,Gene expression NM_011316 average,−0.9295
same,Gene expression NM_012006 average,−0.006733
same,Gene expression NM_013642 average,1.007
same,Gene expression NM_013738 average,−1.171
same,Gene expression NM_013929 average,0.1753
same,Gene expression NM_018881 average,−0.2965
same,Gene expression NM_019738 average,−1.132
same,Gene expression NM_030697 average,−0.3339
same,Gene expression NM_053122 average,−0.09647
same,Gene expression NM_134147 average,0.01433
same,Gene expression NM_134188 average,−0.4402
same,Gene expression X62701 average,0.7376
